This note sets out measurements from patent publication US7449202B1, “Compositions and methods for prostate and kidney health and disorders, an herbal preparation” (Integrated Chinese Medicine Holdings, Ltd., priority 2003, dated 2008).

This experiment in a line: case report: enlarged prostate with frequent urination. Format: in vivo, human. Conditions: person, prescribed for enlarged prostate. An excerpt:
The 9-herb composition and Incontinence. Person diagnosed with having an enlarged prostate suffered from frequent-urination problems including increased daily frequency and reduced volume. They had the urge to urinate every two hours and the amount was only a few drops. Their symptoms were attributed to old age. […] After a period of time on this regimen, their urinary frequency decreased. The person reports that they only go to the bathroom every four hours instead of every two hours during the day. They are able to urinate what they consider a normal amount of urine in a steady stream as opposed to the dribbling they experienced prior to taking the 9-herb composition. The biggest benefit they experienced, however, is sleeping through the night without having to get up and go to the bathroom. Because they are sleeping better, they have more energy throughout the day.

Regarding `CC(C)(C)NC(=O)[C@H]1CC[C@H]2[C@@H]3CC[C@H]4NC(=O)C=C[C@]4(C)[C@H]3CC[C@]12C` [PROSCAR], the urination problem entry was “did not alleviate the urination problem”.
